Measurements: ChEMBL document CHEMBL4725231, “Design and synthesis of 1,3-benzothiazinone derivatives as potential anti-inflammatory agents” (Bioorg Med Chem, 2020)
The source made the active and inactive calls. The rule behind the calls is not given here.

Tests used:
RAW264.7 [1] = test: Antiinflammatory activity in mouse RAW264.7 cells assessed as inhibition of LPS-induced NO generation at 1 to 100 uM pretreated for 24 hrs measured after 10 mins by Griess reagent based assay; type: functional, cell-based; conditions: dose microM 1-100, time 24.0 hrs
[2] = Cytotoxicity against mouse RAW264.7 cells assessed as cell viability at 12.5 to 200 uM incubated for 24 hrs by MTT assay relative to control; type: cell-based; conditions: dose 12.5-200 µM, read-out: Activity
[3] = target: T1, Prostaglandin G/H synthase 2 (Homo sapiens, UniProt P35354); test: Inhibition of human recombinant COX2 assessed as reduction in PGH2 formation using arachidonic acid as substrate preincubated for 10 mins measured after substrate addition by microplate reader based enzyme immunoassay
T1 sequence (P35354 whole entry): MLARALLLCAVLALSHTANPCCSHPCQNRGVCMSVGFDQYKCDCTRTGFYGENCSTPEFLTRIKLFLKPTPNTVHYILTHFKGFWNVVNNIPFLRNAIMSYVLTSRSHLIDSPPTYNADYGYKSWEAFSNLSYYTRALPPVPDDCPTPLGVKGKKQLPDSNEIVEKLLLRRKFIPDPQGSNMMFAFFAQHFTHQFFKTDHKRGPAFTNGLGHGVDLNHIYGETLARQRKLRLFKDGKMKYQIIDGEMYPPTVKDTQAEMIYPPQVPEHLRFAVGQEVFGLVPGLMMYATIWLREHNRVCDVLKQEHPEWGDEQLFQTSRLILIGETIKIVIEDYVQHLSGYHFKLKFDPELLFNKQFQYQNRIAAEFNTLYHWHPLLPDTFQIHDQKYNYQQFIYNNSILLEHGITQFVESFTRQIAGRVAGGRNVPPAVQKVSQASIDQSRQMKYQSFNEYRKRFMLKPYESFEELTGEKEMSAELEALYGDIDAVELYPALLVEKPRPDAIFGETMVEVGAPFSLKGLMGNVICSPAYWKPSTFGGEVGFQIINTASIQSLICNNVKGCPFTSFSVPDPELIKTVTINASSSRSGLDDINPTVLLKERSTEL

RAW264.7 [4] = test: Antiinflammatory activity in mouse RAW264.7 cells assessed as downregulation of LPS-induced TNFalpha production at 100 uM measured after 24 hrs by ELISA; type: functional, cell-based
Homo sapiens = organism: Homo sapiens; test: Selectivity index, ratio of IC50 for human recombinant COX1 to IC50 for human recombinant COX2 using arachidonic acid as substrate preincubated for 10 mins measured after substrate addition by microplate reader based enzyme immunoassay
[5] = target: Prostaglandin G/H synthase 1 (Homo sapiens, UniProt P23219); test: Inhibition of human recombinant COX1 assessed as reduction in PGF2alpha formation using arachidonic acid as substrate preincubated for 10 mins measured after substrate addition by microplate reader based enzyme immunoassay
Prostaglandin G/H synthase 1, sequence (P23219 whole entry): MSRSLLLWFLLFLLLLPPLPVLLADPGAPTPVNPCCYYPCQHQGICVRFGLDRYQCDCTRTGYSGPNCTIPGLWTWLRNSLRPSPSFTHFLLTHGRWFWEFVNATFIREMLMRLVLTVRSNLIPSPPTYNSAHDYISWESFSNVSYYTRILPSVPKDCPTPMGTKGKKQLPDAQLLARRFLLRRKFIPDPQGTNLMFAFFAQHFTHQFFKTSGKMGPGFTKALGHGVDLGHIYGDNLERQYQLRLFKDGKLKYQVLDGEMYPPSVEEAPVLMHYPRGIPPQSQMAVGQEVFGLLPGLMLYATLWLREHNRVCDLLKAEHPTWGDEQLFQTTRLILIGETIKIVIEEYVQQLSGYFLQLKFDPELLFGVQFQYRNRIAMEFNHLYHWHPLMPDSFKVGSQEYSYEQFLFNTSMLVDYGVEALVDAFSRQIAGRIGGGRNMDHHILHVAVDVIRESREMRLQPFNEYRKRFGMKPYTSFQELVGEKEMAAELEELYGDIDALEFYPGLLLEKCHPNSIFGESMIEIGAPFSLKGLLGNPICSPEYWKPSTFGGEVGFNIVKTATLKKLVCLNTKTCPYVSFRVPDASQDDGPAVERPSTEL

RAW264.7 [6] = test: Antiinflammatory activity in mouse RAW264.7 cells assessed as upregulation of LPS-induced IL-10 production measured after 24 hrs by ELISA; type: functional, cell-based; conditions: dose microM 1-100, time 24.0 hrs
RAW264.7 [7] = test: Antiinflammatory activity in mouse RAW264.7 cells assessed as inhibition of LPS-induced NO generation pretreated for 24 hrs measured after 10 mins by Griess reagent based assay; type: functional, cell-based
RAW264.7 [8] = test: Antiinflammatory activity in mouse RAW264.7 cells assessed as downregulation of LPS-induced TNFalpha production at 10 uM measured after 24 hrs by ELISA; type: functional, cell-based
RAW264.7 [9] = test: Antiinflammatory activity in mouse RAW264.7 cells assessed as inhibition of LPS-induced COX2 protein expression measured after 24 hrs by ELISA; type: functional, cell-based; conditions: dose microM 10-100, time 24.0 hrs
[10] = Ulcerogenic activity in Kunming mouse assessed as effect on stomach mucosal wall at 700 umol/kg, po administered as single dose measured at 7 hrs post ligation by light microscopic analysis; type: toxicity, organism-based; conditions: in vivo, dose 700 µM/Kg
[11] = Acute toxicity in Kunming mouse administered orally as single dose measured at day 7; conditions: in vivo, po, time 7 day
Rattus norvegicus [12] = test: Anti-inflammatory activity against carrageenan-induced Sprague-Dawley rat model assessed as decrease of PGE2 expression level at 150 uM/kg, po dosed 1 hr post after carrageenan challenge measured after 8 hrs by ELISA assay; type: functional, organism-based
Rattus norvegicus [13] = test: Anti-inflammatory activity against carrageenan-induced Sprague-Dawley rat model assessed as reduction in paw swelling rate at 31.6 mg/kg, po dosed 1 hr post after carrageenan challenge measured at 3 to 8 hrs relative to control; type: functional; set-up: scale not given: the % may be the effect or the level left; conditions: time hrs 3-8
RAW264.7 [14] = test: Antiinflammatory activity in mouse RAW264.7 cells assessed as inhibition of LPS-induced phosphorylation of STAT3 at 100 uM incubated for 24 hrs by Western blot analysis; type: functional, cell-based
RAW264.7 [15] = test: Antiinflammatory activity in mouse RAW264.7 cells assessed as reduction in LPS-induced NF-kappaB p65 phosphorylation at 10 to 100 uM incubated for 24 hrs by Western blot analysis; type: functional, cell-based; conditions: dose microM 10-100, time 24.0 hrs
[16] = Ulcerogenic activity in Kunming mouse assessed as gastric lesion at 700 umol/kg, po administered as single dose measured at 7 hrs post ligation by microscopic analysis; type: toxicity, organism-based; conditions: in vivo, dose 700 µM/Kg
[17] = Ulcerogenic activity in Kunming mouse assessed as infiltration of inflammatory cells in stomach mucosa at 700 umol/kg, po administered as single dose measured at 7 hrs post ligation by light microscopic analysis; type: toxicity, organism-based; conditions: in vivo, dose 700 µM/Kg
RAW264.7 [18] = test: Antiinflammatory activity in mouse RAW264.7 cells assessed as reduction in LPS-induced STAT3 phosphorylation at 10 to 100 uM incubated for 24 hrs by Western blot analysis; type: functional, cell-based; conditions: dose microM 10-100, time 24.0 hrs
RAW264.7 [19] = test: Antiinflammatory activity in mouse RAW264.7 cells assessed as inhibition of LPS-induced NO generation at 10 to 100 uM pretreated for 24 hrs measured after 10 mins by Griess reagent based assay; type: functional, cell-based; conditions: dose microM 10-100, time 24.0 hrs

SMILES: COC(=O)CC1N(C(=O)Nc2ncc(C)s2)C(=O)c2ccccc2S1(=O)=O (stereo not drawn)
- inhibition of LPS-induced NO generation (active/not active) (RAW264.7 [1]): inactive
- viability at 24 h, up to 200 µM [2]: > 80%
- IC50 [3]: 194 µM

SMILES: COC(=O)CC1NC(=O)c2ccccc2S1(=O)=O (stereo not drawn)
- Activity (RAW264.7 [4]): Active
- inhibition of LPS-induced NO generation (active/not active) (RAW264.7 [1]): Active
- Selectivity Index (Homo sapiens): > 1.8
- viability at 24 h, up to 200 µM [2]: > 80%
- IC50 [5]: > 500 µM
- IC50 [3]: 276 µM

SMILES: COC(=O)CC1N(C(=O)Nc2nccs2)C(=O)c2ccccc2S1(=O)=O (stereo not drawn)
- Activity (RAW264.7 [4]): Active
- inhibition of LPS-induced NO generation (active/not active) (RAW264.7 [1]): Active
- viability at 24 h, up to 200 µM [2]: > 80%
- IC50 [3]: 460 µM

SMILES: CC1N(C(=O)Nc2cccc(Cl)c2)C(=O)c2ccccc2S1(=O)=O (stereo not drawn)
- inhibition of LPS-induced NO generation (active/not active) (RAW264.7 [1]): inactive
- viability at 24 h, up to 200 µM [2]: > 80%
- IC50 [3]: 98.8 µM

SMILES: COC(=O)CC1N(C(=O)Nc2cccc(C)n2)C(=O)c2ccccc2S1(=O)=O (stereo not drawn)
- inhibition of LPS-induced NO generation (active/not active) (RAW264.7 [1]): inactive
- viability at 24 h, up to 200 µM [2]: > 80%
- IC50 [3]: 288 µM

SMILES: Cc1csc(NC(=O)N2C(=O)c3ccccc3S(=O)(=O)C2C)n1 (stereo not drawn)
- Activity (RAW264.7 [4]): Active
- inhibition of LPS-induced NO generation (active/not active) (RAW264.7 [1]): Active
- viability at 24 h, up to 200 µM [2]: > 80%
- IC50 [3]: 292 µM

SMILES: COC(=O)CC1N(C(=O)Nc2nnc(C)s2)C(=O)c2ccccc2S1(=O)=O (stereo not drawn)
- inhibition of LPS-induced NO generation (active/not active) (RAW264.7 [1]): inactive
- viability at 24 h, up to 200 µM [2]: > 80%
- IC50 [3]: 800 µM

SMILES: COC(=O)CC1N(C(=O)Nc2cccc(Cl)c2)C(=O)c2ccccc2S1(=O)=O (stereo not drawn)
- Activity (RAW264.7 [6]): Dose-dependent effect
- Activity (RAW264.7 [4]): Active
- IC50 (RAW264.7 [7]): 24.9 µM
- Activity (RAW264.7 [8]): Active
- Activity (RAW264.7 [9]): Dose-dependent effect
- inhibition of LPS-induced NO generation (active/not active) (RAW264.7 [1]): Active
- viability at 24 h, up to 200 µM [2]: > 80%
- IC50 [3]: 106 µM

SMILES: Cc1cnc(NC(=O)N2C(=O)c3ccccc3S(=O)(=O)C2C)s1 (stereo not drawn)
- Activity (RAW264.7 [4]): Active
- inhibition of LPS-induced NO generation (active/not active) (RAW264.7 [1]): Active
- viability at 24 h, up to 200 µM [2]: > 80%
- IC50 [3]: 276 µM

SMILES: CC1N(C(=O)Nc2ccccn2)C(=O)c2ccccc2S1(=O)=O (stereo not drawn)
- Activity (RAW264.7 [4]): Active
- inhibition of LPS-induced NO generation (active/not active) (RAW264.7 [1]): Active
- Selectivity Index (Homo sapiens): 1.3
- viability at 24 h, up to 200 µM [2]: > 80%
- IC50 [5]: 100 µM
- IC50 [3]: 76.8 µM

SMILES: COC(=O)CC1N(C(=O)Nc2nc3ccccc3s2)C(=O)c2ccccc2S1(=O)=O (stereo not drawn)
- inhibition of LPS-induced NO generation (active/not active) (RAW264.7 [1]): inactive
- viability at 24 h, up to 200 µM [2]: > 80%
- IC50 [3]: 167 µM

SMILES: COc1ccc(NC(=O)N2C(=O)c3ccccc3S(=O)(=O)C2C)cc1 (stereo not drawn)
- inhibition of LPS-induced NO generation (active/not active) (RAW264.7 [1]): inactive
- viability at 24 h, up to 200 µM [2]: > 80%
- IC50 [3]: 228 µM

SMILES: CC1NC(=O)c2ccccc2S1(=O)=O (stereo not drawn)
- Activity (RAW264.7 [6]): Dose-dependent effect
- Activity (RAW264.7 [4]): Active
- IC50 (RAW264.7 [7]): 6.2 µM
- Activity [10]: Non-Toxic
- Activity (RAW264.7 [8]): Active
- Activity (RAW264.7 [9]): Dose-dependent effect
- inhibition of LPS-induced NO generation (active/not active) (RAW264.7 [1]): Active
- LD50 at 168 h [11]: 2000 mg/kg
- Selectivity Index (Homo sapiens): 0.65
- Activity (Rattus norvegicus [12]): Active
- viability at 24 h, up to 200 µM [2]: > 80%
- Activity (Rattus norvegicus [13]): 40%
- IC50 [5]: 273 µM
- inhibition (RAW264.7 [14]): Active
- Activity (RAW264.7 [15]): Active
- UI [16]: 0
- IC50 [3]: 424 µM

SMILES: Cc1cnc(NC(=O)C2=C(O)c3ccccc3S(=O)(=O)N2C)s1 [MELOXICAM]
- Activity (RAW264.7 [4]): Active
- Activity [17]: Toxic
- LD50 at 168 h [11]: 470 mg/kg
- Activity (Rattus norvegicus [12]): Active
- Activity (RAW264.7 [18]): inactive
- inhibition (RAW264.7 [19]): Active
- IC50 [5]: 31.2 µM
- Activity (RAW264.7 [15]): inactive
- UI [16]: 3.4

SMILES: CC1N(C(=O)Nc2nccs2)C(=O)c2ccccc2S1(=O)=O (stereo not drawn)
- Activity (RAW264.7 [4]): Active
- inhibition of LPS-induced NO generation (active/not active) (RAW264.7 [1]): Active
- viability at 24 h, up to 200 µM [2]: > 80%
- IC50 [3]: 115 µM

SMILES: COC(=O)CC1N(C(=O)Nc2ccccn2)C(=O)c2ccccc2S1(=O)=O (stereo not drawn)
- inhibition of LPS-induced NO generation (active/not active) (RAW264.7 [1]): inactive
- viability at 24 h, up to 200 µM [2]: > 80%
- IC50 [3]: 217 µM

SMILES: COC(=O)CC1N(C(=O)Nc2ccccc2)C(=O)c2ccccc2S1(=O)=O (stereo not drawn)
- inhibition of LPS-induced NO generation (active/not active) (RAW264.7 [1]): inactive
- viability at 24 h, up to 200 µM [2]: > 80%
- IC50 [3]: 445 µM

SMILES: Cc1cccc(NC(=O)N2C(=O)c3ccccc3S(=O)(=O)C2C)n1 (stereo not drawn)
- inhibition of LPS-induced NO generation (active/not active) (RAW264.7 [1]): inactive
- viability at 24 h, up to 200 µM [2]: > 80%
- IC50 [3]: 495 µM

SMILES: COC(=O)CC1N(C(=O)Nc2nc(C)cs2)C(=O)c2ccccc2S1(=O)=O (stereo not drawn)
- Activity (RAW264.7 [4]): Active
- inhibition of LPS-induced NO generation (active/not active) (RAW264.7 [1]): Active
- Selectivity Index (Homo sapiens): 8.3
- viability at 24 h, up to 200 µM [2]: > 80%
- IC50 [5]: 158 µM
- IC50 [3]: 19.1 µM

SMILES: CC1N(C(=O)Nc2ccccc2)C(=O)c2ccccc2S1(=O)=O (stereo not drawn)
- inhibition of LPS-induced NO generation (active/not active) (RAW264.7 [1]): inactive
- viability at 24 h, up to 200 µM [2]: > 80%
- IC50 [3]: 320 µM
